Tests used:
caspase-3 = experiment: Caspase-3 activity assay in 3T3L1 preadipocytes; format: cell-based, mouse; conditions: 48 hours treatment
Experimental: 50 μM of stearate, oleate or linoleate was used to treat 3T3L1 cells as this concentration is centered within the normal range for non-esterified stearate in the plasma of humans. Stearate, oleate, or linoleate was loaded onto fatty acid free BSA according to the method reported by Spector and Hoak (Spector and Hoak, 1969). Briefly, stearate (0.5 g) was dissolved in chloroform (100 mL) and mixed well with 10 g diatomaceous earth in a 1 liter flask. The mixture was stirred and dried under nitrogen until powder. Fatty acid free BSA (1 g) was dissolved in 100 mL with DMEM without phenol red and mixed with 3 g of the stearate/diatomaceous earth mixture and stirred for 30 minutes. The stearate/BSA solution was filtered through a 0.45 μm filter, and adjusted to pH 7.4. The concentration of stearate in the solution was detected by use of a NEFA C kit. Oleic and linoleate were loaded in the same way. All experimental data on 3T3L1 cells were confirmed using fatty acid free BSA control solutions that were put through the same preparatory procedure described except for the fact that no fatty acid was added. Before the treatment with fatty acid, 3T3L1 preadipocytes were grown to 100%, and were starved in 2% FBS medium for 24 hours.
Caspase-3 activity was measured using the EnzCheck Capase-3 Activity Kit #1 according to the manufacturer's instructions (Molecular Probes Inc. Eugene, Oreg.).

Ras = Ras activation assay in Hs578T cells; format: cell-based, human; conditions: with or without EGF
Experimental: The concentration of stearate used to treat the Hs578T cells was 50 μM. When EGF was used, the concentration was 1 nM EGF. Before the treatment with stearate or EGF, cells were first starved for 24-48 hours. Stearate was loaded onto fatty acid-free bovine serum albumin (BSA) according to the method reported by Spector et al. (13); briefly, stearate (0.5 g) was dissolved in chloroform (100 ml) and mixed well with 10 g diatomaceous earth in a 1 liter flask. The mixture was stirred and dried under nitrogen until powder. BSA is a physiological carrier of fatty acids and was used to avoid the introduction of organic solvents to solutions coming into contact with cells. Fatty acid-free BSA (1 g) was dissolved in 100 ml with Dulbecco's modified Eagle's medium without phenol red and mixed with 3 g of the stearate/diatomaceous earth mixture with stirring for 45 min. The stearate/BSA solution was filtered through a 0.45 μm filter, and adjusted to pH 7.4. The concentration of stearate in the solution was detected with the NEFA C Kit from Wako Chemicals GmbH (Neuss, Germany). […]
Ras and Rho activation assay kits were purchased from Millipore (Billerica, Mass.). […] The beads were washed three times with lysis buffer B. Bound Ras-GTP and Rho-GTP proteins were detected by immunoblot using Ras and Rho antibodies.

ERK = experiment: Immunoblot of phosphorylated ERK in Hs578T cells; format: cell-based, human; conditions: between 8 and 16 h post-stearate, sustained up to 24 h
Experimental: The concentration of stearate used to treat the Hs578T cells was 50 μM. When EGF was used, the concentration was 1 nM EGF. Before the treatment with stearate or EGF, cells were first starved for 24-48 hours. Stearate was loaded onto fatty acid-free bovine serum albumin (BSA) according to the method reported by Spector et al. (13); briefly, stearate (0.5 g) was dissolved in chloroform (100 ml) and mixed well with 10 g diatomaceous earth in a 1 liter flask. The mixture was stirred and dried under nitrogen until powder. BSA is a physiological carrier of fatty acids and was used to avoid the introduction of organic solvents to solutions coming into contact with cells. Fatty acid-free BSA (1 g) was dissolved in 100 ml with Dulbecco's modified Eagle's medium without phenol red and mixed with 3 g of the stearate/diatomaceous earth mixture with stirring for 45 min. The stearate/BSA solution was filtered through a 0.45 μm filter, and adjusted to pH 7.4. The concentration of stearate in the solution was detected with the NEFA C Kit from Wako Chemicals GmbH (Neuss, Germany). All experimental data on Hs578T cells were controlled using fatty acid-free BSA control solutions that were put through the same preparatory procedure described for the stearate/BSA solution except for the fact that no fatty acid was added.
Cells were treated as described above, and lysed with lysis buffer. […]

CCCCCCCCCCCCCCCCCC(=O)O [stearate, Stearic acid]
Caspase-3 activity (caspase-3): increased significantly
Binding of GTP to Ras (Ras): increases
Phosphorylation of ERK (ERK): increased

— patent publication US20140357706A1, “Stearate Compounds” (THE UAB RESEARCH FOUNDATION, priority 2011, published 2014)
